In publication PMC9578396, “Intrinsic Antibacterial Activity of Xeruborbactam In Vitro: Assessing Spectrum and Mode of Action” (Antimicrobial Agents and Chemotherapy, 2022):
Values after ≈ are worked out from the molar mass of the structure shown. Values joined by “and” are separate entries in the source; they are usually repeats but may differ in a detail not shown here. Equal values may be shown once. Read-outs that look alike come from different tables or passages of the source.

Assays:
Klebsiella pneumoniae = assay: microbe, parasite or virus in culture; type: cell-based; conditions: for MIC: Klebsiella pneumoniae
Summary of the method: (§1)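 Test organisms were KPC-producing clinical isolates (some enriched for porin mutations), matched isolates that lost KPC plasmids, and engineered porin/efflux mutant strains. Susceptibility was measured by broth microdilution following CLSI methods, using panels prepared in-house.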

Acinetobacter baumannii = assay: Broth microdilution MIC (CLSI), Acinetobacter baumannii; type: cell-based
Summary of the method: as §1

Streptococcus pneumoniae = assay: MIC, Streptococcus pneumoniae; type: cell-based; conditions: Streptococcus pneumoniae; for MIC: read-out: MIC
Text: (§2) Bacterial isolates were subjected to broth microdilution susceptibility testing, performed according to Clinical and Laboratory Standards Institute (CLSI) methods ([46]), using panels prepared in-house. Meropenem was purchased from Sandoz, and all other antibiotics were from Sigma-Aldrich. Xeruborbactam was synthesized at Qpex Biopharma, San Diego, CA. Avibactam was purchased from eNovation Chemicals LLC, Bridgewater, NJ, USA; zidebactam was from MedKoo Biosciences, Inc., Morrisville, NC, and nacubactam was from Advanced ChemBlocks, Hayward, CA. Durlobactam was synthesized at Acme Bioscience, Palo Alto, CA, USA.

Enterococcus faecalis = assay: MIC, Enterococcus faecalis; type: cell-based
Text: as §2

[1] = tested on: A. baumannii strain ATCC 17978; assay: Fluorescence microscopy, cellular morphology; type: cell-based, Acinetobacter baumannii; conditions: xeruborbactam, meropenem 1× and 2× MIC; aztreonam 2× MIC; amdinocillin 2 μg/mL
Summary of the method: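 K. pneumoniae KPM1026a, A. baumannii ATCC 17978 and P. aeruginosa PAM1154 grown in CA-MHB at 30°C to OD600 ≈0.12–0.15 (~2 × 10^8 CFU/mL), then compound-treated at 30°C for 1 or 2 h. Cells stained with FM4-64 (1 μg/mL), DAPI (2 μg/mL) and SYTOX green (0.5 μM), imaged on 1.2% agarose/20% LB pads.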

[2] = Carbapenem-resistant Acinetobacter baumannii, 505 isolates

O=C(O)c1c(F)ccc2c1OB(O)[C@@H]1C[C@H]21 [Xeruborbactam] was tested, and the MIC (Klebsiella pneumoniae; strain KPM2613, ΔompK35 ompK36_2040) was 32 µg/mL, the MIC (Klebsiella pneumoniae; strain KPM2696, ΔacrB) was 16 µg/mL and the “percentage of strains with xeruborbactam MIC values ≥32 µg/ml” value (“percentage of strains” below) (Klebsiella pneumoniae; OmpK35 full-length (n=118)) was 31.4%. For the same compound, the “percentage of strains” value (Klebsiella pneumoniae; OmpK35 full-length, OmpK36 GD (n=11)) was 82%, the “percentage of strains” value (Klebsiella pneumoniae; OmpK35 full-length, OmpK36 full length (n=82)) was 6.1% and the “percentage of strains” value (Klebsiella pneumoniae; OmpK35 full-length, OmpK36 non-functional (n=25)) was 92%. For the same compound, the “percentage of strains” value (Klebsiella pneumoniae; OmpK35 non-functional (n=318)) was 49%, the “percentage of strains” value (Klebsiella pneumoniae; OmpK35 non-functional, OmpK36 GD (n=149)) was 74.5% and the “percentage of strains” value (Klebsiella pneumoniae; OmpK35 non-functional, OmpK36 full length (n=130)) was 3.4%. The “percentage of strains” value (Klebsiella pneumoniae; OmpK35 non-functional, OmpK36 non-functional (n=39)) was 95%, the “percentage of strains” value (Klebsiella pneumoniae; OmpK36 GD (n=160)) was 75% and the “percentage of strains” value (Klebsiella pneumoniae; OmpK36 non-functional (n=65)) was 92.3% and 92%. For the same compound, the “fold MIC increase” value (Klebsiella pneumoniae; inactivation of ompK36 alone or in combination with ompK35) was 2 fold and 2- to 4 fold, the “fold MIC increase” value (Klebsiella pneumoniae; strain KPM1171 vs wild type) was 4 fold and the MIC (Acinetobacter baumannii; Acinetobacter baumannii ACM1320 (ATCC 17978)) was 16 µg/mL. The MIC (Acinetobacter baumannii; Acinetobacter baumannii ACM1320 (ATCC 17978), read-out: MIC) was 72 µM, the MIC (Acinetobacter baumannii; Acinetobacter baumannii, 505 isolates of carbapenem-resistant A. baumannii, read-out: modal MIC) was 32 µg/mL and the MIC (Acinetobacter baumannii; Acinetobacter baumannii, AB1007 (no beta-lactamase), xeruborbactam 0 µg/ml, read-out: MIC) was 16 µg/mL. For the same compound, the MIC (Acinetobacter baumannii; Acinetobacter baumannii, ATCC17978, Acinetobacter baumannii ACM1320 (ATCC 17978), read-out: MIC) was 72 µM and 16 µg/mL, the MIC (Acinetobacter baumannii; Acinetobacter baumannii, ATCC17978, strain ATCC 17978 (Fig. 6), read-out: MIC) was 16 µg/mL and the MIC (Acinetobacter baumannii; Acinetobacter baumannii, pumpless strain of A. baumannii, read-out: MIC) was 18 µM and 4 µg/mL. It also gave an MIC (Acinetobacter baumannii; Acinetobacter baumannii, strain AB1007, wild type, read-out: MIC) of 16 µg/mL, an MIC (Acinetobacter baumannii; Acinetobacter baumannii, strain ACM1013, ΔadeIJK) of 4 µg/mL and an MIC (Acinetobacter baumannii; Acinetobacter baumannii, strain ACM1014, ΔadeABC) of 16 µg/mL. It also gave an MIC (Acinetobacter baumannii; Acinetobacter baumannii, strain ACM1015, ΔadeIJK ΔadeABC) of 4 µg/mL, an MIC (Acinetobacter baumannii; Acinetobacter baumannii, strain ACM1027, adeN (AdeIJK overexpression)) of 32 µg/mL and an MIC (Acinetobacter baumannii; Acinetobacter baumannii, strain ACM1030, adeS (AdeABC overexpression)) of 16 µg/mL. It also gave an MIC (Acinetobacter baumannii; Acinetobacter baumannii, strain AB1007, read-out: MIC) of 16 µg/mL, an MIC50 (Acinetobacter baumannii; [2]) of 16 µg/mL and an MIC90 (Acinetobacter baumannii; [2]) of 64 µg/mL. The “fold MIC decrease” value (Acinetobacter baumannii; adeIJK inactivation) was 4 fold, the “fold MIC increase” value (Acinetobacter baumannii; adeIJK overexpression) was 2 fold and the MIC (Streptococcus pneumoniae; sp001) was 8 µg/mL (≈ 36 µM). For the same compound, the MIC (Streptococcus pneumoniae; sp002) was 4 µg/mL (≈ 18 µM), the MIC (Streptococcus pneumoniae; sp003) was 4 µg/mL (≈ 18 µM) and the MIC (Streptococcus pneumoniae; sp004) was > 32 µg/mL. The MIC (Streptococcus pneumoniae; sp005) was 16 µg/mL (≈ 72.1 µM), the MIC (Streptococcus pneumoniae; sp006) was 32 µg/mL (≈ 144 µM) and the MIC (Streptococcus pneumoniae; sp007) was 16 µg/mL (≈ 72.1 µM). The MIC (Streptococcus pneumoniae; sp008) was 32 µg/mL (≈ 144 µM), the MIC (Streptococcus pneumoniae; sp009) was 32 µg/mL (≈ 144 µM) and the MIC (Streptococcus pneumoniae; sp117) was > 32 µg/mL. For the same compound, the MIC (Streptococcus pneumoniae; sp118) was > 32 µg/mL, the MIC (Streptococcus pneumoniae; sp119) was 32 µg/mL (≈ 144 µM) and the MIC (Streptococcus pneumoniae; sp120) was 32 µg/mL (≈ 144 µM). For the same compound, the MIC (Streptococcus pneumoniae; sp121) was 32 µg/mL (≈ 144 µM), the MIC (Streptococcus pneumoniae; sp122) was > 32 µg/mL and the MIC (Streptococcus pneumoniae; sp123) was > 32 µg/mL. The MIC (Streptococcus pneumoniae; sp125) was 32 µg/mL (≈ 144 µM), the MIC (Streptococcus pneumoniae; sp126) was > 32 µg/mL and the MIC50 (Streptococcus pneumoniae; S. pneumoniae strains, n = 18) was 32 µg/mL (≈ 144 µM). For the same compound, the MIC90 (Streptococcus pneumoniae; S. pneumoniae strains, n = 18) was > 32 µg/mL, the MIC (Enterococcus faecalis; all the E. faecalis strains, n = 16) was > 32 µg/mL and the MIC (Enterococcus faecalis; efs003) was > 32 µg/mL. For the same compound, the MIC (Enterococcus faecalis; efs004) was > 32 µg/mL, the MIC (Enterococcus faecalis; efs005) was > 32 µg/mL and the MIC (Enterococcus faecalis; efs006) was > 32 µg/mL. The MIC (Enterococcus faecalis; efs007) was > 32 µg/mL, the MIC (Enterococcus faecalis; efs026) was > 32 µg/mL and the MIC (Enterococcus faecalis; efs071) was > 32 µg/mL. For the same compound, the MIC (Enterococcus faecalis; efs072) was > 32 µg/mL, the MIC (Enterococcus faecalis; efs073) was > 32 µg/mL and the MIC (Enterococcus faecalis; efs090) was > 32 µg/mL. For the same compound, the MIC (Enterococcus faecalis; efs091) was > 32 µg/mL, the MIC (Enterococcus faecalis; efs092) was > 32 µg/mL and the MIC (Enterococcus faecalis; efs093) was > 32 µg/mL. The MIC (Enterococcus faecalis; efs094) was > 32 µg/mL, the MIC (Enterococcus faecalis; efs095) was > 32 µg/mL and the MIC (Enterococcus faecalis; efs096) was > 32 µg/mL. For the same compound, the cellular morphology [1] was “cell shape deformation, from coccobacilli to a football shape”.
